From PubChem BioAssay (NCI)
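Growth conditions: 96-well plates. Treatment: test compound, 48 hours, 5 concentrations. Analysis: linear interpolation between bracketing concentrations; unreached endpoints set to highest concentration. TGI: total growth inhibition.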

Experiments:
Test in all cases: NCI anticancer screen, dose series, 48 h
[1] = test system: 786-0 renal
[2] = test system: A498 renal
[3] = test system: A549 NSCLC
[4] = test system: ACHN renal
[5] = test system: BT-549 breast
[6] = test system: CAKI-1 renal
[7] = test system: COLO 205 colon
[8] = test system: DU-145 prostate
[9] = test system: EKVX NSCLC
[10] = test system: HCC-2998 colon
[11] = test system: HCT-116 colon
[12] = test system: HCT-15 colon
[13] = test system: HL-60(TB) leukemia
[14] = test system: HOP-62 NSCLC
[15] = test system: HOP-92 NSCLC
[16] = test system: HS 578T breast
[17] = test system: HT29 colon
[18] = test system: IGROV1 ovarian
[19] = test system: K-562 leukemia
[20] = test system: KM12 colon
[21] = test system: LOX IMVI melanoma
[22] = test system: M14 melanoma
[23] = test system: MALME-3M melanoma
[24] = test system: MCF7 breast
[25] = test system: MDA-MB-231 breast
[26] = test system: MDA-MB-435
[27] = test system: MDA-N
[28] = test system: NCI-H226 lung
[29] = test system: NCI-H23 lung
[30] = test system: NCI-H460 lung
[31] = test system: NCI-H522 lung
[32] = test system: NCI/ADR-RES ovarian
[33] = test system: OVCAR-3 ovarian
[34] = test system: OVCAR-4 ovarian
[35] = test system: OVCAR-5 ovarian
[36] = test system: OVCAR-8 ovarian
[37] = test system: PC-3 prostate
[38] = test system: RPMI-8226 leukemia
[39] = test system: RXF 393 renal
[40] = test system: SF-268 CNS
[41] = test system: SF-295 CNS
[42] = test system: SF-539 CNS
[43] = test system: SK-MEL-2 melanoma
[44] = test system: SK-MEL-28 melanoma
[45] = test system: SK-MEL-5 melanoma
[46] = test system: SK-OV-3 ovarian
[47] = test system: SN12C renal
[48] = test system: SNB-19 CNS
[49] = test system: SNB-75 CNS
[50] = test system: SR leukemia
[51] = test system: SW-620 colon
[52] = test system: TK-10 renal
[53] = test system: U251 CNS
[54] = test system: UACC-257 melanoma
[55] = test system: UACC-62 melanoma
[56] = test system: UO-31 renal
[57] = test system: CCRF-CEM leukemia
[58] = test system: MOLT-4 leukemia
[59] = test system: T-47D breast

## CC(NC(=O)c1ccc(Cl)c(Cl)c1)c1ccc(-c2ccccc2)cc1 (centres undefined)
[1]
  TGI: 47.5 µM
[2]
  TGI: > 100 µM
[3]
  TGI: 45.5 µM
[4]
  TGI: > 100 µM
[5]
  TGI: > 100 µM
[6]
  TGI: > 100 µM
[7]
  TGI: > 100 µM
[8]
  TGI: 57.5 µM
[9]
  TGI: > 100 µM
[10]
  TGI: > 100 µM
[11]
  TGI: > 100 µM
[12]
  TGI: > 100 µM
[13]
  TGI: > 100 µM
[14]
  TGI: 54.5 µM
[15]
  TGI: > 100 µM
[16]
  TGI: 65.1 µM
[17]
  TGI: > 100 µM
[18]
  TGI: > 100 µM
[19]
  TGI: > 100 µM
[20]
  TGI: > 100 µM
[21]
  TGI: > 100 µM
[22]
  TGI: > 100 µM
[23]
  TGI: 49.1 µM
[24]
  TGI: > 100 µM
[25]
  TGI: > 100 µM
[26]
  TGI: > 100 µM
[27]
  TGI: > 100 µM
[28]
  TGI: 78.7 µM
[29]
  TGI: > 100 µM
[30]
  TGI: > 100 µM
[31]
  TGI: > 100 µM
[32]
  TGI: > 100 µM
[33]
  TGI: 66.2 µM
[34]
  TGI: 37.7 µM
[35]
  TGI: > 100 µM
[36]
  TGI: 82.5 µM
[37]
  TGI: > 100 µM
[38]
  TGI: > 100 µM
[39]
  TGI: 28 µM
[40]
  TGI: > 100 µM
[41]
  TGI: > 100 µM
[42]
  TGI: 42.9 µM
[43]
  TGI: > 100 µM
[44]
  TGI: > 100 µM
[45]
  TGI: > 100 µM
[46]
  TGI: 90.4 µM
[47]
  TGI: > 100 µM
[48]
  TGI: 46.7 µM
[49]
  TGI: 39.3 µM
[50]
  TGI: 40.3 µM
[51]
  TGI: > 100 µM
[52]
  TGI: 68.7 µM
[53]
  TGI: > 100 µM
[54]
  TGI: > 100 µM
[55]
  TGI: > 100 µM
[56]
  TGI: 29.4 µM

## O=C(CN1CCCCC1)c1ccc2[nH]c(=O)oc2c1
[1]
  TGI: > 100 µM
[2]
  TGI: > 100 µM
[4]
  TGI: > 100 µM
[5]
  TGI: > 100 µM
[6]
  TGI: > 100 µM
[57]
  TGI: > 100 µM
[7]
  TGI: > 100 µM
[8]
  TGI: > 100 µM
[9]
  TGI: > 100 µM
[11]
  TGI: > 100 µM
[12]
  TGI: > 100 µM
[13]
  TGI: > 100 µM
[14]
  TGI: > 100 µM
[16]
  TGI: > 100 µM
[17]
  TGI: > 100 µM
[18]
  TGI: > 100 µM
[19]
  TGI: > 100 µM
[20]
  TGI: > 100 µM
[21]
  TGI: > 100 µM
[22]
  TGI: > 100 µM
[23]
  TGI: > 100 µM
[24]
  TGI: > 100 µM
[25]
  TGI: > 100 µM
[26]
  TGI: > 100 µM
[27]
  TGI: > 100 µM
[58]
  TGI: > 100 µM
[28]
  TGI: > 100 µM
[29]
  TGI: > 100 µM
[30]
  TGI: > 100 µM
[32]
  TGI: > 100 µM
[33]
  TGI: > 100 µM
[35]
  TGI: > 100 µM
[36]
  TGI: > 100 µM
[37]
  TGI: > 100 µM
[38]
  TGI: > 100 µM
[39]
  TGI: > 100 µM
[40]
  TGI: > 100 µM
[41]
  TGI: > 100 µM
[42]
  TGI: > 100 µM
[43]
  TGI: > 100 µM
[44]
  TGI: > 100 µM
[45]
  TGI: > 100 µM
[46]
  TGI: > 100 µM
[47]
  TGI: > 100 µM
[48]
  TGI: > 100 µM
[49]
  TGI: 87.8 µM
[50]
  TGI: > 100 µM
[51]
  TGI: > 100 µM
[52]
  TGI: > 100 µM
[53]
  TGI: > 100 µM
[54]
  TGI: > 100 µM
[55]
  TGI: > 100 µM

## OC1CCN2Cc3ccccc3N=C12 (centres undefined)
[1]
  TGI: > 100 µM
[2]
  TGI: > 100 µM
[3]
  TGI: > 100 µM
[4]
  TGI: > 100 µM
[5]
  TGI: > 100 µM
[6]
  TGI: > 100 µM
[57]
  TGI: > 100 µM
[7]
  TGI: > 100 µM
[8]
  TGI: > 100 µM
[9]
  TGI: > 100 µM
[10]
  TGI: > 100 µM
[11]
  TGI: > 100 µM
[12]
  TGI: > 100 µM
[13]
  TGI: > 100 µM
[14]
  TGI: > 100 µM
[15]
  TGI: > 100 µM
[16]
  TGI: > 100 µM
[17]
  TGI: > 100 µM
[19]
  TGI: > 100 µM
[20]
  TGI: > 100 µM
[21]
  TGI: > 100 µM
[22]
  TGI: > 100 µM
[23]
  TGI: > 100 µM
[24]
  TGI: > 100 µM
[25]
  TGI: > 100 µM
[26]
  TGI: > 100 µM
[27]
  TGI: > 100 µM
[58]
  TGI: > 100 µM
[28]
  TGI: > 100 µM
[29]
  TGI: > 100 µM
[30]
  TGI: > 100 µM
[32]
  TGI: > 100 µM
[33]
  TGI: > 100 µM
[34]
  TGI: > 100 µM
[35]
  TGI: > 100 µM
[36]
  TGI: > 100 µM
[37]
  TGI: > 100 µM
[38]
  TGI: > 100 µM
[39]
  TGI: > 100 µM
[40]
  TGI: > 100 µM
[41]
  TGI: > 100 µM
[42]
  TGI: > 100 µM
[43]
  TGI: > 100 µM
[44]
  TGI: > 100 µM
[45]
  TGI: > 100 µM
[46]
  TGI: > 100 µM
[47]
  TGI: > 100 µM
[48]
  TGI: > 100 µM
[49]
  TGI: > 100 µM
[51]
  TGI: > 100 µM
[52]
  TGI: > 100 µM
[53]
  TGI: > 100 µM
[54]
  TGI: > 100 µM
[55]
  TGI: > 100 µM
[56]
  TGI: > 100 µM

## CCOC(=O)N1CCC2(CC1)C[C@](Sc1ccccc1)(C(C)=O)[C@H](C)O2
[1]
  TGI: > 100 µM
[2]
  TGI: > 100 µM
[3]
  TGI: > 100 µM
[4]
  TGI: > 100 µM
[6]
  TGI: > 100 µM
[57]
  TGI: > 100 µM
[7]
  TGI: > 100 µM
[8]
  TGI: > 100 µM
[9]
  TGI: > 100 µM
[10]
  TGI: > 100 µM
[12]
  TGI: > 100 µM
[13]
  TGI: > 100 µM
[14]
  TGI: > 100 µM
[15]
  TGI: > 100 µM
[16]
  TGI: > 100 µM
[17]
  TGI: > 100 µM
[18]
  TGI: > 100 µM
[19]
  TGI: > 100 µM
[20]
  TGI: > 100 µM
[21]
  TGI: > 100 µM
[22]
  TGI: > 100 µM
[23]
  TGI: > 100 µM
[24]
  TGI: > 100 µM
[25]
  TGI: > 100 µM
[26]
  TGI: > 100 µM
[27]
  TGI: > 100 µM
[58]
  TGI: > 100 µM
[28]
  TGI: > 100 µM
[29]
  TGI: > 100 µM
[30]
  TGI: > 100 µM
[31]
  TGI: > 100 µM
[32]
  TGI: > 100 µM
[33]
  TGI: > 100 µM
[34]
  TGI: > 100 µM
[35]
  TGI: > 100 µM
[36]
  TGI: > 100 µM
[37]
  TGI: > 100 µM
[38]
  TGI: > 100 µM
[39]
  TGI: > 100 µM
[40]
  TGI: > 100 µM
[41]
  TGI: > 100 µM
[42]
  TGI: > 100 µM
[43]
  TGI: > 100 µM
[44]
  TGI: > 100 µM
[45]
  TGI: > 100 µM
[46]
  TGI: > 100 µM
[48]
  TGI: > 100 µM
[49]
  TGI: > 100 µM
[50]
  TGI: > 100 µM
[51]
  TGI: > 100 µM
[59]
  TGI: > 100 µM
[52]
  TGI: > 100 µM
[53]
  TGI: > 100 µM
[54]
  TGI: > 100 µM
[55]
  TGI: > 100 µM
[56]
  TGI: > 100 µM
